# Values quoted from earlier work, collected in patent US9623127B2, “Multimodal contrast and radiopharmaceutical agent for an imaging and a targeted therapy guided by imaging” (CENTRE NATIONAL DE LA RECHERCHE SCIENTIFIQUE, priority 2011, dated 2017).
# Settings: 0.6 T, 20° C.
compound,measurement,value
O=C([O-])CN(CCN(CC(=O)[O-])CC(=O)O)CCN(CC(=O)[O-])CC(=O)O.[Gd+3] [Gd(III)DTPA],longitudinal relaxivity r1,5.4 mM⁻¹ s⁻¹
